Where a name gives a salt, the structure may show the parent alone.

In this experiment the target is T1, Human CCR3 (Homo sapiens, UniProt P51677).
T1 construct: The cloned CCR3 cDNA was constructed with pcDNA3 vector and transfected into a IC562 cell line; expressed in transfected cells
T1 sequence (P51677 1-355): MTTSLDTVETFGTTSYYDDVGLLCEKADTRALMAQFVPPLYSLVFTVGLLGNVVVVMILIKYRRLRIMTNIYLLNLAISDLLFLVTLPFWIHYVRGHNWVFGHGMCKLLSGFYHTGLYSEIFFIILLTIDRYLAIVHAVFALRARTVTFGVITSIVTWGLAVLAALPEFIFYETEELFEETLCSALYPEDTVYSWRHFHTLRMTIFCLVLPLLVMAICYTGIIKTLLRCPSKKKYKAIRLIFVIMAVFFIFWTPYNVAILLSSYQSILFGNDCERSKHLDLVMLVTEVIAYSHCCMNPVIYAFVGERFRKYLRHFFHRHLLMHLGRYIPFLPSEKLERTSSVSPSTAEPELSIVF
Put plainly: Calcium mobilization assay, eotaxin-stimulated. The class given is cell-based. Conditions: human CCR3-transformed K562 cells, 10 nM eotaxin; compounds of about 40 to 90% purity; read-out: Activity grade Ca2+ (IC50 class). In outline: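 Eotaxin (10 nM final) triggered calcium flux, monitored 60 s with Fluo-3AM, in butyrate-pretreated (5 mM, 20–24 h) CCR3-transfected K562 cells. Compounds preincubated 10 min; percent inhibition per concentration yielded IC50.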
In general terms: Calcium flux is commonly read through the fluorescence of an indicator in the cells.
On to `Cc1cc(C)cc(Oc2ccc(S(C)(=O)=O)cc2S(=O)(=O)N2CCNCC2)c1.Cl` [Example 1-35], for which the concentration for half-maximal inhibition (IC50) is less than 1 µM.

As for `CC(C)(C)c1cccc(Oc2ccc([N+](=O)[O-])cc2S(=O)(=O)N2CCNCC2)c1.Cl` [Example 1-36], the IC50 is less than 1 µM.

For the molecule `COc1cc(C)cc(Oc2ccc([N+](=O)[O-])cc2S(=O)(=O)N2CCNCC2)c1.Cl` [Example 1-37], the IC50 was less than 1 µM.

Consider `Cl.O=[N+]([O-])c1cccc(Oc2ccc([N+](=O)[O-])cc2S(=O)(=O)N2CCNCC2)c1` [Example 1-38], for which the IC50 is less than 1 µM.

As to `Cl.O=[N+]([O-])c1ccc(Oc2cccc(Br)c2)c(S(=O)(=O)N2CCNCC2)c1` [Example 1-39], the 50% inhibitory concentration (IC50) is less than 1 µM.

For `CCCCc1ccccc1Oc1ccc([N+](=O)[O-])cc1S(=O)(=O)N1CCNCC1.Cl` [Example 1-40], the IC50 was less than 1 µM.

`Cc1cc(C)cc(Oc2ccccc2S(=O)(=O)N2CCNCC2)c1.Cl` [Example 1-41]: the IC50 is 1 to 10 µM.

In the case of `Cc1cc(C)cc(Oc2ccc(C(=O)N3CCNCC3)cc2S(=O)(=O)N2CCNCC2)c1.Cl.Cl` [Example 1-42], the IC50 is greater than 10 µM.

With `Cc1cc(C)cc(Oc2ccc(C(F)(F)F)cc2S(=O)(=O)N2CCNCC2)c1.Cl` [Example 1-43], the IC50 was less than 1 µM.

Turning to `Cc1cc(C)cc(Oc2cc(C)c([N+](=O)[O-])cc2S(=O)(=O)N2CCNCC2)c1.Cl` [Example 1-44], the IC50 lay in the range of 1 to 10 µM.

Take `Cc1cc(Oc2cc(Cl)cc(Cl)c2)c(S(=O)(=O)N2CCNCC2)cc1[N+](=O)[O-].Cl` [Example 1-45]: the IC50 is less than 1 µM.

Consider `Cc1cc(C)cc(Oc2cc(C(F)(F)F)ccc2S(=O)(=O)N2CCNCC2)c1.Cl` [Example 1-46], for which the IC50 is greater than 10 µM.

With `COc1cc(Oc2cc(C)cc(C)c2)c(S(=O)(=O)N2CCNCC2)cc1[N+](=O)[O-].Cl` [Example 1-47], the IC50 is greater than 10 µM.

`O=[N+]([O-])c1ccc(Oc2cc(Cl)cc(Cl)c2)c(S(=O)(=O)N2CC3CCCNC3C2)c1` (stereo not drawn) [Example 1-48]: the IC50 was less than 1 µM.

In the case of `Cl.O=S(=O)(c1cc(F)ccc1Oc1cc(Cl)cc(Cl)c1)N1CCNCC1` [Example 1-51], the IC50 was less than 1 µM.

Take `Cc1cc(C)cc(Oc2ccc([N+](=O)[O-])cc2S(=O)(=O)N2CC(C)NCC2C)c1.Cl` (stereo not drawn) [Example 1-54]: the IC50 was less than 1 µM.

Regarding `Cl.O=S(=O)(c1cc(Cl)ccc1Oc1cc(Cl)cc(Cl)c1)N1CCNCC1` [Example 1-56], the IC50 is less than 1 µM.

In the case of `Cl.O=S(=O)(c1cc(Br)ccc1Oc1cc(Cl)cc(Cl)c1)N1CCNCC1` [Example 1-57], the IC50 is less than 1 µM.

Take `Cc1cc(Oc2ccc([N+](=O)[O-])cc2S(=O)(=O)N2CCNCC2)ccc1Cl.Cl` [Example 1-60]: the IC50 was in the range of 1 to 10 µM.

As for `Cc1ccc(C)c(Oc2ccc([N+](=O)[O-])cc2S(=O)(=O)N2CCNCC2)c1C.Cl` [Example 1-61], the IC50 was 1 to 10 µM.

As to `Cc1cccc(Oc2ccc([N+](=O)[O-])cc2S(=O)(=O)N2CCNCC2)c1C.Cl` [Example 1-62], the IC50 is less than 1 µM.

Regarding `Cc1ccc(Oc2ccc([N+](=O)[O-])cc2S(=O)(=O)N2CCNCC2)cc1C.Cl` [Example 1-63], the half-inhibitory concentration (IC50) is less than 1 µM.

With `Cc1ccc(C)c(Oc2ccc([N+](=O)[O-])cc2S(=O)(=O)N2CCNCC2)c1.Cl` [Example 1-64], the half-inhibitory concentration (IC50) is less than 1 µM.

Consider `Cc1cc(C)c(C)c(Oc2ccc([N+](=O)[O-])cc2S(=O)(=O)N2CCNCC2)c1.Cl` [Example 1-65], for which the IC50 was less than 1 µM.

In the case of `Cc1ccc(C(C)C)c(Oc2ccc([N+](=O)[O-])cc2S(=O)(=O)N2CCNCC2)c1.Cl` [Example 1-66], the IC50 fell in the range of 1 to 10 µM.

As for `Cl.O=[N+]([O-])c1ccc(Oc2c(F)c(F)cc(F)c2F)c(S(=O)(=O)N2CCNCC2)c1` [Example 1-74], the IC50 is less than 1 µM.

Regarding `O=[N+]([O-])c1ccc(Oc2cc(Br)cc(Br)c2)c(S(=O)(=O)N2CCNCC2)c1` [Example 1-76], the half-inhibitory concentration (IC50) is less than 1 µM.

Consider `Cl.O=[N+]([O-])c1ccc(Oc2cc(Cl)cc(Cl)c2F)c(S(=O)(=O)N2CCNCC2)c1` [Example 1-77], for which the IC50 is less than 1 µM.

Take `Cc1cc(Oc2ccc([N+](=O)[O-])cc2S(=O)(=O)N2CCNCC2)cc(C)c1Cl` [Example 1-79]: the IC50 is less than 1 µM.

In the case of `Cc1ccc(Cl)c(Oc2ccc([N+](=O)[O-])cc2S(=O)(=O)N2CCNCC2)c1` [Example 1-80], the concentration for half-maximal inhibition (IC50) was less than 1 µM.

For `Cc1cc(Oc2ccc([N+](=O)[O-])cc2S(=O)(=O)N2CCNCC2)c(C(C)C)cc1Cl` [Example 1-81], the IC50 is greater than 10 µM.

Regarding `O=[N+]([O-])c1ccc(Oc2cc(Cl)ccc2Cl)c(S(=O)(=O)N2CCNCC2)c1` [Example 1-84], the IC50 is less than 1 µM.

Take `Cl.O=[N+]([O-])c1ccc(Oc2cc(Cl)cc(Cl)c2Cl)c(S(=O)(=O)N2CCNCC2)c1` [Example 1-86]: the IC50 was less than 1 µM.

As to `O=C(O)C1CNCCN1S(=O)(=O)c1cc([N+](=O)[O-])ccc1Oc1cc(Cl)cc(Cl)c1` (stereo not drawn) [Example 1-87], the IC50 is less than 1 µM.

Turning to `Cc1cc(C)cc(Oc2ccc([N+](=O)[O-])cc2S(=O)(=O)N2CCN(CCO)CC2)c1` [Example 1-88], the IC50 is less than 1 µM.

Take `Cc1cc(C)cc(Oc2ccc([N+](=O)[O-])cc2S(=O)(=O)N2CCN(CCOCCO)CC2)c1` [Example 1-89]: the IC50 is less than 1 µM.

Turning to `Cc1cc(C)cc(Oc2ccc([N+](=O)[O-])cc2S(=O)(=O)N2CCCNCC2)c1` [Example 1-90], the half-inhibitory concentration (IC50) is less than 1 µM.

In the case of `Cl.O=[N+]([O-])c1ccc(Oc2cc(Cl)cc(Cl)c2)c(S(=O)(=O)N2CCCNCC2)c1` [Example 1-91], the IC50 was less than 1 µM.

In the case of `Cc1cc(C)cc(Oc2ccc([N+](=O)[O-])cc2S(=O)(=O)N2CC(C)NC(C)C2)c1` (stereo not drawn) [Example 1-92], the IC50 was less than 1 µM.

Regarding `CC1CN(S(=O)(=O)c2cc([N+](=O)[O-])ccc2Oc2cc(Cl)cc(Cl)c2)CC(C)N1` (stereo not drawn) [Example 1-93], the IC50 was less than 1 µM.

`Cl.N[C@H]1CCN(S(=O)(=O)c2cc([N+](=O)[O-])ccc2Oc2cc(Cl)cc(Cl)c2)C1` [Example 1-100]: the IC50 was less than 1 µM.

As for `Cc1cc(C)cc(Sc2ccc([N+](=O)[O-])cc2S(=O)(=O)N2CCNCC2)c1` [Example 2-1, 1-({2-[(3,5-dimethylphenyl)-sulfanyl]-5-nitrophenyl}sulfonyl)piperazine hydrochloride], the IC50 was less than 1 µM.

`Cc1cc(C)cc(Oc2ccc(N)cc2S(=O)(=O)N2CCN(C(=O)OC(C)(C)C)CC2)c1` [Example 5-1, tert-butyl 4-{[5-amino-2-(3,5-dimethyl-phenoxy)phenyl]sulfonyl}-1-piperazinecarboxylate]: the IC50 was greater than 10 µM.

For the molecule `Cc1cc(C)cc(Oc2ccc(Cl)cc2S(=O)(=O)N2CCNCC2)c1` [Example 5-2, 1-{[5-chloro-2-(3,5-dimethylphenoxy)phenyl]sulfonyl}piperazine hydrochloride], the IC50 is less than 1 µM.

`Cc1cc(C)cc(Oc2ccc(O)cc2S(=O)(=O)N2CCNCC2)c1` [Example 6-1, 4-(3,5-dimethylphenoxy)-3-(1-piperazinylsulfonyl)phenol hydrochloride]: the IC50 was greater than 10 µM.

Consider `COc1ccc(Oc2cc(C)cc(C)c2)c(S(=O)(=O)N2CCNCC2)c1` [Example 6-2, hydrochloride], for which the half-inhibitory concentration (IC50) fell in the range of 1 to 10 µM.

As to `Cc1cc(C)cc(Oc2ccc(NC(=O)Cc3ccccc3)cc2S(=O)(=O)N2CCNCC2)c1` [Example 7-1, N-[4-(3,5-dimethylphenoxy)-3-(1-piperazinylsulfonyl)phenyl]-2-phenylacetamide], the IC50 is greater than 10 µM.

For the molecule `Cc1cc(C)cc(Oc2ccc(Br)cc2S(=O)(=O)N2CCNCC2)c1` [Example 8-1, 1-{[5-bromo-2-(3,5-dimethylphenoxy)phenyl]sulfonyl}piperazine hydrochloride], the IC50 is less than 1 µM.

Turning to `Cc1cc(C)cc(Oc2ccc(C#N)cc2S(=O)(=O)N2CCNCC2)c1` [Example 9-1, 4-(3,5-dimethylphenoxy)-3-(1-piperazinylsulfonyl)benzonitrile hydrochloride], the IC50 is less than 1 µM.

Consider `CN(C)C(=O)c1ccc(Oc2cc(Cl)cc(Cl)c2)c(S(=O)(=O)N2CCNCC2)c1` [Example 10-1, 4-(3,5-dichlorophenoxy)-N,N-dimethyl-3-(1-piperazinylsulfonyl)benzamide hydrochloride], for which the IC50 was 1 to 10 µM.

Turning to `Cc1cc(C)cc(Oc2cc3cc[nH]c3cc2S(=O)(=O)N2CCNCC2)c1` [Example 11-1, 5-(3,5-dimethylphenoxy)-6-(1-piperazinylsulfonyl)-1H-indole trifluoroacetate], the half-inhibitory concentration (IC50) was greater than 10 µM.

`N#Cc1ccc(Nc2cc(Cl)cc(Cl)c2)c(S(=O)(=O)N2CCNCC2)c1` [Example 20-1, 4-[(3,5-dichlorophenyl)amino]-3-(1-piperazinylsulfonyl)benzonitrile hydrochloride]: the IC50 is less than 1 µM.

On to `Cc1cc(C)cc(Oc2ccncc2S(=O)(=O)N2CCNCC2)c1` [Example 25-1, 1-{[4-(3,5-dimethylphenoxy)-3-pyridinyl]sulfonyl}piperazine hydrochloride], for which the IC50 was less than 1 µM.

For `CN(CCN1CCCCC1)S(=O)(=O)c1cc([N+](=O)[O-])ccc1Sc1cc(Cl)cc(Cl)c1` [Example 26-1, 2-[(3,5-dichlorophenyl)sulfanyl]-N-methyl-5-nitro-N-[2-(1-piperidinyl)ethyl]benzenesulfonamide], the IC50 was less than 1 µM.

A word on the IC50: it is the concentration at which inhibition is half-maximal.

The values are drawn from patent US8242118B2, “Arylsulfonamide derivatives for use as CCR3 antagonists in the treatment of inflammatory and immunological disorders” (Axikin Pharmaceuticals Inc., priority 2001, dated 2012).
